One series addresses T1, human ALDH1A2 (Homo sapiens, UniProt O94788).
T1 construct: made in house; host or cells: BL21-DE3 E. coli
T1 sequence (O94788 1-518): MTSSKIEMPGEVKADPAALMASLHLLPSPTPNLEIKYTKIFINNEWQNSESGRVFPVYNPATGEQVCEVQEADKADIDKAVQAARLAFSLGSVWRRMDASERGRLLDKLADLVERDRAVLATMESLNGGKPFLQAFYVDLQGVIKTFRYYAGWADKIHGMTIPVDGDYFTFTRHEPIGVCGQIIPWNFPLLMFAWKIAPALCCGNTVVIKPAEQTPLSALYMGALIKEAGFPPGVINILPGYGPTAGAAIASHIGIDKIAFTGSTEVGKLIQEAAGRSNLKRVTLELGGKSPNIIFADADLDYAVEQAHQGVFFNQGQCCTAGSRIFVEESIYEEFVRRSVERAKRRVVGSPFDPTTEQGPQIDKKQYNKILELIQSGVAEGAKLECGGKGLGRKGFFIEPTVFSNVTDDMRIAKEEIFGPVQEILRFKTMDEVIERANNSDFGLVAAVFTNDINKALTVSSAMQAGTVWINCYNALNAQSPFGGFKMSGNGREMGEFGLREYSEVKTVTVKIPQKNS
Nature of the series: Recombinant enzyme activity assay. The series is classed as biochemical. To be noted: dose titration, up to 10 μM. The protocol:
(§1) Human and mouse ALDH enzymes were cloned from respective reference RNA, constructed into plasmids using restriction enzyme cloning and confirmed by Sanger Sequencing. Genes were cloned into a vector containing the T7 promoter for bacterial expression and into a lentiviral expression vector for cell line expression as previously described.[78] Recombinant protein was isolated by inducing BL21-DE3 E. coli (Thermo Fisher) containing the respective plasmid for 20 h at room temperature, shaking, with 300 μM IPTG (Selleck Chem). Cell disruption was achieved via ultrasonication (Φ10, 3s on/6s off, 25min) in 1L of amplified bacterial culture. The target protein was then purified using Ni NTA beads 6FF affinity chromatography. Lysis buffer consisted of 50 mM Na2HPO4, 300 mM NaCl, 1 mM β-ME, pH7.5. The column (2 mL) was washed with 50 mM Na2HPO4, 300 mM NaCl, 1 mM β-ME, 20 mM Imidazole, pH7.5. Elution was performed using 3 mL of 50 mM Na2HPO4, 300 mM NaCl, 1 mM β-ME, 250 mM Imidazole, pH7.5. Following affinity chromatography, the protein underwent further purification via Gel filtration chromatography using a Superdex200 column. Aliquots were quality controlled against a pure internal standard enzyme and/or by western blot to confirm enzyme expression. Purified enzyme was used for biochemical and biophysical assays.
(§2) For the recombinant enzyme activity assay, enzyme aliquots were thawed on ice for 4 h prior to analysis and the protocol was performed as described[8] with the following key changes: 1) Final concentrations of NAD+ (Gold Bio) were 200 μM and BSA were 1 mg/mL 2) Propanaldehyde was used as the substrate for ALDH1A1 and ALDH2. 3) Reaction velocity was monitored through diaphorase (clostridium) coupled reduction of resazurin (100 μM) monitored with ex/em of 560nm/590 nm in order to regenerate NAD+ and thus maintain constant cofactor concentration as well as to avoid high absorbance values of many screening compounds at the NADH absorbance. Assays were conducted at room temperature (controlled to 21-23C) and all buffers were maintained at pH 7.5. For all reactions, pre-incubation time was approximately 2 min while the reaction monitoring was performed over 10 min.

A further series has as its target T2, mouse ALDH1A3 (Mus musculus, UniProt Q9JHW9).
T2 construct: made in house; host or cells: BL21-DE3 E. coli
T2 sequence (Q9JHW9 1-512): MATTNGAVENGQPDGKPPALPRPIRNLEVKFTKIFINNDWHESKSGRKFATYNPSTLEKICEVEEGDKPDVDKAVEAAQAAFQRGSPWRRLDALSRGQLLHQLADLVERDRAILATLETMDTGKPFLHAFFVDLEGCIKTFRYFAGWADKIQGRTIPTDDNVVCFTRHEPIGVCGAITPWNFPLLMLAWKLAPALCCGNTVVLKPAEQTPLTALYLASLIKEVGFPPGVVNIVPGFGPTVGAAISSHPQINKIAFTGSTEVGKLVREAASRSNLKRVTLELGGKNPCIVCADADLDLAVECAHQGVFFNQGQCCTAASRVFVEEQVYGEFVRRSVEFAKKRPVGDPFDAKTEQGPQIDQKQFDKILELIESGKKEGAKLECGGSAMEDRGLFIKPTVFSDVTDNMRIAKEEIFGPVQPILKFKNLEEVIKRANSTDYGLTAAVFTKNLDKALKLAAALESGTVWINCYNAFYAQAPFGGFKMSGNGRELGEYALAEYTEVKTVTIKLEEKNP
Nature of the series: Recombinant enzyme activity assay. To be noted: dose titration, substrate competition assay, recombinant mouse ALDH1A3, 4-parameter equation; read-out: muALDH1A3 IC50. Type of series: biochemical. The protocol: as §1, §2

The target in series [1] is T3, human ALDH1A3 in A375 cells (Homo sapiens, UniProt P47895).
T3 construct: the cell lines with high endogenous ALDH1A3 activity: MDA-MB-468 (triple-negative breast cancer), A375 (melanoma), and LN229 (glioblastoma); endogenous in cells; host or cells: A375
T3 sequence (P47895 1-512): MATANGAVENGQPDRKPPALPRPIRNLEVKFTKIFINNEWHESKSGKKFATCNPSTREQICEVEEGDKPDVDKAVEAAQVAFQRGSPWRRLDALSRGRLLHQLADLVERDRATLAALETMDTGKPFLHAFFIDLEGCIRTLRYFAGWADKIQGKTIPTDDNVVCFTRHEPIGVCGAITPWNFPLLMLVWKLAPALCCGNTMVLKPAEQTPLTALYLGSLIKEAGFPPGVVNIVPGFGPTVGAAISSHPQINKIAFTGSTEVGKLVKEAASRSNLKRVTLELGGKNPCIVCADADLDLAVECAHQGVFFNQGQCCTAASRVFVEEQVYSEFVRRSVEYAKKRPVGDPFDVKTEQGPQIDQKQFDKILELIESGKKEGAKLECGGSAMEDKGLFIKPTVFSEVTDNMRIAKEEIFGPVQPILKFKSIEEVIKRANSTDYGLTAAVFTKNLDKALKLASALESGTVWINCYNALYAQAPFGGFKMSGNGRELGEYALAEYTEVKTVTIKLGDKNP
The experiment in a line: Aldefluor assay in A375 cells. The series is classed as cell-based. To be noted: for activity in Aldefluor assay, A375 cells (in words): up to 10 μM.

The subject of a further series is LN229 cells. The experiment in a line: Aldefluor assay in LN229 cells. The series is classed as cell-based, human. To be noted: 1 mM DEAB, negative control gate. The protocol:
(§3) In addition, cells were suspended at a concentration of 100,000 cells per mL. Finally, DMSO was added to at 1% final in all cells to improve kinetics of the assay. For compound titrations, concentrated compound stock was added first to tubes and a uniform Aldefluor buffer containing the cell suspension was added to dilute to final volumes. Cells were analyzed by a BD LSRII for flow cytometry and were sorted using a FACSAria Fusion cell sorter (BD Biosciences) equipped with a 70 micron nozzle. Sample and sort collection tubes were kept at 4°C. […] DAPI was used as a live-dead indicator.

The subject of series [2] is MDA-MB-468 cells. Nature of the series: Aldefluor assay in MDA-MB-468 cells. The series is classed as cell-based, human. To be noted: 1 mM DEAB, negative control gate. The protocol: as §3
A further series deals with NCI-H358 cells. Nature of the series: Aldefluor assay in NCI-H358 cells. Type of series: cell-based, human. The note with it: 1 mM DEAB, negative control gate. The protocol: as §3
In a further series the test system is MCF7 cells. Nature of the series: Aldefluor assay in MCF7 cells. Type of series: cell-based, human. To be noted: 1 mM DEAB, negative control gate. The protocol: as §3
For the next series, the system named is MDA-MB-231 cells. The experiment in a line: Aldefluor assay in MDA-MB-231 cells. Type of series: cell-based, human. To be noted: 1 mM DEAB, negative control gate. The protocol: as §3
Series [3] has as its target T4, ALDH1A3 (Homo sapiens, UniProt P47895).
T4 sequence (P47895 1-512): T3 sequence (P47895 1-512)
The experiment in a line: Recombinant enzyme activity assay. Type of series: biochemical. To be noted: dose titration; for inhibitory activity against ALDH1A3 (in words): up to 10 μM. Set-up: made in house; host or cells: BL21-DE3 E. coli.
Experimental: We then tested each published ALDH inhibitor against the three human ALDH1A enzymes to assess inhibitory activity and isozyme selectivity.
Recombinant protein was isolated by inducing BL21-DE3 E. coli (Thermo Fisher) containing the respective plasmid for 20 h at room temperature, shaking, with 300 μM IPTG (Selleck Chem). […] The target protein was then purified using Ni NTA beads 6FF affinity chromatography. Lysis buffer consisted of 50 mM Na2HPO4, 300 mM NaCl, 1 mM β-ME, pH7.5. The column (2 mL) was washed with 50 mM Na2HPO4, 300 mM NaCl, 1 mM β-ME, 20 mM Imidazole, pH7.5. Elution was performed using 3 mL of 50 mM Na2HPO4, 300 mM NaCl, 1 mM β-ME, 250 mM Imidazole, pH7.5. Following affinity chromatography, the protein underwent further purification via Gel filtration chromatography using a Superdex200 column. […] Purified enzyme was used for biochemical and biophysical assays.

The target of another series is T5, human ALDH1A1 (Homo sapiens, UniProt P00352).
T5 construct: made in house; host or cells: BL21-DE3 E. coli
T5 sequence (P00352 1-501): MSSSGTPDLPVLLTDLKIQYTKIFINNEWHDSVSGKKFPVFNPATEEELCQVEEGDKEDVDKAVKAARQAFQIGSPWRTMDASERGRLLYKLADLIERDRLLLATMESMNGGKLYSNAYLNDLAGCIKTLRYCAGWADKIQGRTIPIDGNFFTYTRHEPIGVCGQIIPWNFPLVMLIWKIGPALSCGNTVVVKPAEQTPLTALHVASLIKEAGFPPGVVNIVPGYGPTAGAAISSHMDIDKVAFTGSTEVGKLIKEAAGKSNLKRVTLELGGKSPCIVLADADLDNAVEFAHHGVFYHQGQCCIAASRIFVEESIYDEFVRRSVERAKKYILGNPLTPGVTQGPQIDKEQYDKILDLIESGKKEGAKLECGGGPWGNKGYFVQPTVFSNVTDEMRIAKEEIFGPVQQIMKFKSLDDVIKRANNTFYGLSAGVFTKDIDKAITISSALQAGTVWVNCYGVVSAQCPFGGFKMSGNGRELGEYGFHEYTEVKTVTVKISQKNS
The experiment in a line: Recombinant enzyme activity assay. The note with it: dose titration, up to 10 μM. Type of series: biochemical.

The next series addresses T6, ALDH1A1 in HepG2 cells (Homo sapiens, UniProt P00352).
T6 construct: endogenous in cells; host or cells: HepG2
Nature of the series: Aldefluor assay in HepG2 cells. Type of series: cell-based. To be noted: 45 min incubation at 37°C. The protocol: as §3

For series [4], the system named is MDA-MB-468 cells. The note with it: MDA-MB-468, 24 hour incubation, highest tested dose 10 μM.
For series [5], the system named is ALDH1A3. To be noted: read-out: reported IC50 for ALDH1A3; cited from earlier work.
A further series concerns ALDH1A3 cells. The note with it: cited from earlier work.
In the next series the test system is HaCaT cells. Nature of the series: Dose-titration cytotoxicity analysis. The note with it: 24 hour incubation, highest tested dose 10 μM.

The term IC50 denotes the concentration that inhibits the measured activity by half. With `CCN(CC)c1ccc(C=O)cc1` [DEAB, 4-diethylaminobenzaldehyde], the “inhibitory activity against ALDH1A2 (in words)” value at human ALDH1A2 is “moderate”. In addition, the IC50 came out at 1380 nM on mouse ALDH1A3 and 23100 nM on ALDH1A3 [3] (substrate competition assay, recombinant human ALDH1A3, 4-parameter equation, read-out: huALDH1A3 IC50). Also, the “ALDH^+” value in [1] (1 mM DEAB, negative control gate, A375) amounted to 0.32; in the series on LN229 cells, 0.19; in the series on MDA-MB-468 cells [2], 0.22; in the series with NCI-H358 cells, 0.53; in the series with MCF7 cells it was 1.77; with MDA-MB-231 cells it was 0.42. The “activity in Aldefluor assay, A375 cells (in words)” value in [1] is on record as “showed activity”. In addition, the “inhibitory activity against ALDH1A3 (in words)” value on ALDH1A3 [3] was “weak”.

By inhibition is commonly meant the relative decrease from the control value, in per cent. Read a high inhibition as a response far below the control. For `CSC(=O)C#CC(C)(C)N(C)C` [DIMATE, S-methyl 4-(dimethylamino)-4-methyl-pent-2-ynethioate], the “inhibitory activity against ALDH1A2 (in words)” value at human ALDH1A2 is given as “did not show any activity”. The “inhibitory activity against ALDH1A1 (in words)” value at human ALDH1A1 was “did not show any activity”. Moreover, the “activity in Aldefluor assay, A375 cells (in words)” value in series [1] is recorded as “no dose-dependent inhibition of activity”. Besides, at ALDH1A1 in HepG2 cells, testing at 10 µM gave an inhibition of 13%. The “inhibitory activity against ALDH1A3 (in words)” value on ALDH1A3 [3] is on record as “did not show any activity”.

As to `c1ccc(-c2ccc3nc(-c4ccccc4)cn3c2)cc1` [GA11], the “inhibitory activity against ALDH1A2 (in words)” value on human ALDH1A2 was “no activity up to 10 μM”. For the same compound, on human ALDH1A1, the “inhibitory activity against ALDH1A1 (in words)” value is “no activity up to 10 μM”. For the same compound, the “nonspecific cytotoxicity (in words)” value in the series with MDA-MB-468 cells [4] and in the series on HaCaT cells was “potent cytotoxicity above 100 nM” in each case. Moreover, the half-maximal inhibitory concentration (IC50) in the series on ALDH1A3 [5] was 660 nM. For the same compound, the “reported cytotoxic activity against ALDH1A3 cells (in words)” value in the series with ALDH1A3 cells is listed as “picomolar”. Besides, at ALDH1A3 [3], the “inhibitory activity against ALDH1A3 (in words)” value is “no ALDH1A3 inhibitory activity up to 10 μM”.

The compound `CCOC(=O)c1ncn2c1CN(C)C(=O)c1cc(F)ccc1-2` [flumazenil] came in with an inhibition in the series with GABAA of 95.9%.

The record behind these values is PMC12595434, “Development of retinoid nuclear receptor pathway antagonists through targeting aldehyde dehydrogenase 1A3” (iScience, 2025).
